Assay results: patent publication US20260092086A1, “ANTIMICROBIAL LASSO PEPTIDES” (priority 2022, published 2026)
“Also recorded” adds a separate entry of the source. Where a SMILES comes first, the peptide text is derived from it.

What was measured:
[1] = system: carboxypeptidase B and carboxypeptidase Y; assay: Carboxypeptidase digestion; assay type: in vitro ADME
Experimental: Carboxypeptidase assays were done in 50 μL of 50 mM sodium acetate, pH 6.0 with 1 unit each of carboxypeptidase B and carboxypeptidase Y. Reactions were incubated overnight at 20° C. for 16 hours and then quenched with 1% formic acid. An aliquot of the reaction was then injected onto LC-MS to compare with an untreated control.

[2] = system: Enterobacter cloacae BIDMC120; conditions: strain BIDMC120; cited from earlier work
[3] = system: Enterobacter hormaechei BIDMC87; conditions: strain BIDMC87; cited from earlier work
[4] = system: Enterobacter hormaechei BWH39; conditions: strain BWH39; cited from earlier work
[5] = system: Enterobacter cloacae MGH3; conditions: strain MGH3; cited from earlier work
[6] = system: Enterobacter hormaechei UCI35; conditions: strain UCI35; cited from earlier work
[7] = system: Enterobacter kobei MGH178; conditions: strain MGH178; cited from earlier work
[8] = system: Enterobacter ludwigii MGH216; conditions: strain MGH216; cited from earlier work
[9] = system: Enterobacter roggenkampii MGH239; conditions: strain MGH239; cited from earlier work
[10] = system: Enterobacter asburiae MGH243; conditions: strain MGH243; cited from earlier work
[11] = system: Enterobacter cloacae UCI102; conditions: strain UCI102; cited from earlier work
[12] = system: Enterobacter asburiae UCI193; conditions: strain UCI193; cited from earlier work
Thermolysin = target: T1, Thermolysin (Geobacillus stearothermophilus, UniProt P43133); assay: Protease digestion, thermolysin; assay type: in vitro ADME; conditions: 50 μM peptide, 30° C., about 1 hour, LC-MS
T1 construct: purchased Sigma-Aldrich
T1 sequence (P43133 236-551): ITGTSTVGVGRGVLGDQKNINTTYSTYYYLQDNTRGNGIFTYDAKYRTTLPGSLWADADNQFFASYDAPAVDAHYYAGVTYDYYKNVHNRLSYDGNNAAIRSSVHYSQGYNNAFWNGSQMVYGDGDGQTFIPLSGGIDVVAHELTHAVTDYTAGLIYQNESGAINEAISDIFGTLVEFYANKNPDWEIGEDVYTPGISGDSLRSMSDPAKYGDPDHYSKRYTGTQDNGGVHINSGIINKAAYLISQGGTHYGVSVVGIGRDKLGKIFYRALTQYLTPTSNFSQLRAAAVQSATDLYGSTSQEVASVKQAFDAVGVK
Experimental: Thermolysin from Geobacillus stearothermophilus (Sigma-Aldrich) was first resuspended in 50 mM Tris, 0.5 mM CaCl2). The enzyme was then added to 50 μM peptide samples at a final concentration of about 0.04 mg/mL in a buffer of 50 mM Tris, 0.5 mM CaCl2), pH 8. The reactions were then allowed to incubate at 30° C. for about 1 hour before quenching with 1% formic acid. An aliquot was then injected onto LC-MS for analysis.

[13] = Stability of variants: threaded-to-unthreaded peptide in supernatant extract by LC-MS; assay type: physicochemical; conditions: for Stability Relative to WT: ratio of threaded-to-unthreaded peptide in supernatant extract after purification; for threaded versus unthreaded peptide in supernatant extract (stability against unthreading): heating and carboxypeptidase assays, compared with wild-type
[14] = system: Enterobacter amnigenus ATCC 33072; assay type: cell-based; conditions: against Enterobacter amnigenus (FIG. 28, peptides at 10 μM; Y10A FIG. 34)
Experimental: Cloacaenodin was evaluated against several common laboratory strains as well as commercially acquired strains using a spot-on-lawn assay.^45 Strains were streaked out onto LB agar plates and incubated overnight at their recommended temperatures. A single colony was then used to inoculate an overnight culture in 5 mL of LB broth. After shaking at 250 rpm at the recommended temperature for each strain, 50 μL of the overnight culture was used to inoculate 5 mL of LB broth (volume ratio 1:100). These cultures were grown for a few hours until they reached the exponential phase (OD600˜0.4-0.6) before being added to 10 mL of soft M63 agar at a final cell density of 10^7 CFUs/mL, or 10^8 CFUs total in 10 mL. The M63 soft agar was composed of 2 g/L of (NH4)2SO4 (EMD MilliporeSigma), 13.6 g/L of KH2PO4 (Fisher), 40 mg/L of each of the 20 common amino acids, 0.2% glucose (Sigma), 0.00005% w/v thiamine hydrochloride (Sigma), and 0.65% w/v bacteriological-grade agar (Apex Bioresearch). […] Upon solidification, 10 μL of purified cloacaenodin in water at two-fold dilutions were then spotted onto the agar and allowed to dry. The plates were incubated overnight at the strains' recommended temperatures and analyzed the next morning for activity. The MIC is defined as the last dilution where a spot was visible.

[15] = system: Escherichia coli XL-1 Blue; assay: Intracellular toxicity: IPTG-induced expression from plasmid lacking cloD; assay type: cell-based; conditions: IPTG induction
Experimental: After characterizing the structure and proteolytic resistance of cloacaenodin, cloacaenodin's inhibition of bacterial growth was tested. As a preliminary test of antimicrobial activity, a version of the expression plasmid from which the cloD gene was removed was cloned, so that the lasso peptide could not be exported by the Escherichia coli upon isopropyl β-D-1-thiogalactopyranoside (IPTG)-induced expression.
Cloacaenodin variants were constructed using site-directed mutagenesis. Mutant precursor genes were amplified from the wild-type precursor in pAK2 using mutagenic primers. Following PCR amplification of the mutated precursor gene, the purified PCR product was digested and ligated into pAK2 with the EcoRI and HindIII restriction sites. For the pMP3 plasmid for deletion of the cloD gene, the D gene was first disrupted by digestion of pAK2 with BamHI and NcoI, which removed the entire cloD gene and the C-terminal portion of the cloC gene. The digested plasmid was then ligated with an insert that restored the C-terminal portion of the cloC gene. All mutants were sequence confirmed by Genewiz (now Azenta) before use.

**Q.** With `CC[C@H](C)[C@@H]1NC(=O)[C@H](CCCNC(=N)N)NC(=O)[C@H](CC(=O)O)NC(=O)[C@H](C(C)C)NC(=O)[C@H](CO)NC(=O)[C@H](Cc2c[nH]cn2)NC(=O)CNC(=O)CC[C@@H](C(=O)N[C@@H](Cc2ccc(O)cc2)C(=O)N[C@@H](Cc2ccccc2)C(=O)NCC(=O)N2CCC[C@H]2C(=O)N2CCC[C@H]2C(=O)NCC(=O)N[C@@H](CC(C)C)C(=O)N2CCC[C@H]2C(=O)NCC(=O)N2CCC[C@H]2C(=O)N[C@H](C(=O)N[C@@H](CC(C)C)C(=O)N[C@@H](Cc2ccccc2)C(=O)N[C@@H](Cc2ccc(O)cc2)C(=O)NCC(=O)O)C(C)C)NC(=O)[C@@H]2CCCN2C1=O` [Cloacaenodin S24G] (HELM PEPTIDE1{G.H.S.V.D.R.I.P.E.Y.F.G.P.P.G.L.P.G.P.V.L.F.Y.G}$PEPTIDE1,PEPTIDE1,1:R1-9:R3$$$V2.0; C-terminus assumed; bridges inferred) as the compound, how does the proteolysis by carboxypeptidase ([1]; pH 6) read?
**A.** The proteolysis by carboxypeptidase was “susceptibility to carboxypeptidase”.

**Q.** What does the source list for `C[C@@H](O)[C@H]1C(=O)N2C(C(=O)O)=C(S[C@@H]3CN[C@H](C(=O)N(C)C)C3)[C@H](C)[C@H]12` [Meropenem]?
**A.** Meropenem MIC [2]: 4 µg/mL; Meropenem MIC [3]: 16 µg/mL; Meropenem MIC [4]: 2 µg/mL; Meropenem MIC [5]: ≥16 µg/mL; Meropenem MIC [6]: 4 µg/mL; Meropenem MIC [7]: ≤0.25 µg/mL; Meropenem MIC [8]: ≤0.25 µg/mL; Meropenem MIC [9]: 1 µg/mL; Meropenem MIC [10]: 16 µg/mL; Meropenem MIC [11]: 0.063 µg/mL; Meropenem MIC [12]: 23 µg/mL

**Q.** Which proteolysis by thermolysin (Thermolysin) does the source give for `CC[C@H](C)[C@@H]1NC(=O)[C@H](CCCNC(=N)N)NC(=O)[C@H](CC(=O)O)NC(=O)[C@H](C(C)C)NC(=O)[C@H](CO)NC(=O)[C@H](Cc2c[nH]cn2)NC(=O)CNC(=O)CC[C@@H](C(=O)N[C@@H](Cc2ccc(O)cc2)C(=O)N[C@@H](Cc2ccccc2)C(=O)NCC(=O)N2CCC[C@H]2C(=O)N2CCC[C@H]2C(=O)NCC(=O)N[C@@H](CC(C)C)C(=O)N2CCC[C@H]2C(=O)NCC(=O)N2CCC[C@H]2C(=O)N[C@H](C(=O)N[C@@H](CC(C)C)C(=O)N[C@@H](Cc2ccccc2)C(=O)N[C@@H](Cc2ccc(O)cc2)C(=O)N[C@@H](CO)C(=O)O)C(C)C)NC(=O)[C@@H]2CCCN2C1=O` [unthreaded cloacaenodin] (HELM PEPTIDE1{G.H.S.V.D.R.I.P.E.Y.F.G.P.P.G.L.P.G.P.V.L.F.Y.S}$PEPTIDE1,PEPTIDE1,1:R1-9:R3$$$V2.0; C-terminus assumed; bridges inferred) here?
**A.** Its proteolysis by thermolysin is “cleavage of the unthreaded peptide both in its linear and ring segments; also recorded: can be cleaved by thermolysin”.

**Q.** Which results are given for “GHSVADRIPEYFGPPGLPGPVLFYS [Cloacaenodin 10-membered ring]”?
**A.** proteolysis by carboxypeptidase ([1]; carboxypeptidase B and Y, pH 6.0, 20° C., 16 hours, LC-MS): susceptible to degradation by carboxypeptidase; Stability Relative to WT [13]: Less

**Q.** With “GHSVDRIAEYFGPPGLPGPVLFYS [Cloacaenodin P8A, 109]” as the compound, how does the “threaded versus unthreaded peptide in supernatant extract (stability against unthreading)” value [13] read?
**A.** The value was “a dramatic decrease in the ratio of threaded-to-unthreaded peptide in the extract for a cloacaenodin P8A variant (FIG. 32) was not observed”.

**Q.** And the “Stability Relative to WT” value [13]?
**A.** Its value is “Comparable”.

**Q.** For “GHSVDRIPEAFGPPGLPGPVLFYS [Cloacaenodin Y10A, 118]”, which “Bioactivity Relative to WT” value [14] is on record?
**A.** Its value is “Much less”.

**Q.** And the “intracellular toxicity (growth of E. coli on IPTG without CloD)” value [15]?
**A.** Its value is “not toxic intracellularly”.

**Q.** And the “intracellular toxicity (growth of E. coli on IPTG without CloD)” value ([15]; listed as Y10A)?
**A.** The value was “cells could still grow”.

**Q.** Which “Bioactivity Relative to WT” value [14] does the source give for “GHSVDRIPEYFGPPGLPGPVLFYA [Cloacaenodin S24A, 113]” here?
**A.** The value was “Comparable”.

**Q.** With “GHSVDRIPEYFGPPGLPGPVLFYC [Cloacaenodin S24C, 117]” as the compound, how does the “Bioactivity Relative to WT” value [14] read?
**A.** Its value is “Less”.

**Q.** For “GHSVDRIPEYFGPPGLPGPVLFYT [Cloacaenodin S24T, 116]”, which “Bioactivity Relative to WT” value [14] is on record?
**A.** Its value is “Less”.

**Q.** For “GHSVDRIPEYFGPPGLPGPVLFYY [Cloacaenodin S24Y, 114]”, which “Bioactivity Relative to WT” value [14] is on record?
**A.** The value was “Comparable”.

**Q.** With “GHSVDRIPEYFGPPGLPGPVLWYS [Cloacaenodin F22W]” as the compound, how does the “Bioactivity Relative to WT” value [14] read?
**A.** The value was “Comparable”.

**Q.** And the “threaded versus unthreaded peptide in supernatant extract (stability against unthreading)” value [13]?
**A.** The value was “comparable levels of unthreaded peptide”.

**Q.** What about the “Stability Relative to WT” value [13] of the same compound?
**A.** Its value is “Comparable”.
